Measured values published in PMC8198038, “In Vitro Evaluation of Antiproliferative Properties of Novel Organotin(IV) Carboxylate Compounds with Propanoic Acid Derivatives on a Panel of Human Cancer Cell Lines” (Molecules, 2021).

Experiments:
MCF-7 cells [1] = experiment: ROS/RNS (DHR) and NO (DAF-FM) production, flow cytometry; assay type: cell-based, human; conditions: 48 h, IC50 concentration
Description: Reactive oxygen (ROS) and nitrogen species (RNS) are natural by-products of the aerobic metabolism in cells. At physiological concentrations, they play a significant role in regulating numerous cellular processes. On the other hand, it is well-known that the reactive oxygen (O2^•−, H2O2, OH^•−) and nitrogen species (NO) are highly reactive molecules that easily damage cells by interacting with biomolecules such as proteins, lipids, carbohydrates, and nucleic acids, thus triggering different pathological conditions (inflammation, cardiovascular disorders, neurodegenerative diseases, and the formation of cancer cells).
For the investigation of ROS/RNS production the cells from the T25 flask were collected by applying 1 mL of trypsin and diluted with 9 mL of complete medium. Using 1 mL of DHR (dihydrorhodamine) working solution the cells were stained and incubated at 37 °C and 5% CO2 for 10 min. The staining process was stopped by applying 4 mL of complete medium, then the solution was centrifuged for 3 min at 1000 rpm and the supernatant was discarded. The cells were resuspended in complete medium (1 mL/well) and seeded in a 6 well plate. […] The prepared cells were analysed by flow cytometry.
The cells were washed with PBS and then treated with 1 mL of DAF-FM (4-amino-5-methylamino-2,7′-diflurofluorescin diacetate) working solution. […] The prepared cells were analysed by flow cytometry.

[2] = tested on: NIH3T3 (normal mouse embryonic fibroblast) cells; experiment: CV (crystal violet) assay, NIH3T3 cells; assay type: cell-based; conditions: CV assay, 48 h incubation, normal cells; read-out: IC50 (mean ± SD), NIH3T3, CV
Description: (§1) The cell proliferations of ligand precursors and organotin(IV) compounds were evaluated with the aid of MTT (3-(4,5-dimethylthiazol-2-yl)-2,5-12 diphenyltetrazolium bromide) and CV (crystal violet) assays toward prostate (PC-3), colon (HT-29), breast (MCF-7) and hepatic (HepG2) cancer cell lines, and normal mouse embryonic fibroblast cells (NIH 3T3). The cells were cultivated in T75 flasks containing 10 mL of complete medium and kept at 37 °C and 5% CO2 […]. The nutrient medium was RPMI-1640 (PAA Laboratories) supplemented with 10% foetal bovine serum, L-glutamine, and penicillin/streptomycin (Sigma). Afterward, 5.000 cells of PC-3 and MCF-7 and 1.500 cells of HT-29 and HepG2 were transferred into 96 well-plates and used for MTT and CV assays. For microscopy investigations as well as FACS measurements (except for ROS/RNS measurements), MCF-7 cells were seeded overnight in 6-well plates (150,000 cells/well) in […] of complete medium. […] In all assays, control cells were untreated MCF-7 cells incubated for the same time period as treated cells and treated with appropriate reagents in various assays. BD FACS Aria III was used for flow cytometry experiments and results were analysed using BD FACSDiva software (BD Biosciences, Heidelberg, Germany) and Cyflogic (V 1.2.1, CyFlo Ltd., Turku, Finland). A fluorescence microscope Invitrogen EVOS FL 2 Auto 2 Cell Imaging System was used for visualization of the cells as well as for detection of fluorescence in the cells.
(§2) Ligands HL1‒HL3, organotin(IV) compounds, and cisplatin were investigated in 9 different concentrations (100, 50, 10, 5, 1, 0.5, 0.1, 0.05, 0.01 μM). Using the complete medium, each stock solution of the test compounds (20 mM in DMSO) was diluted to obtain the working solution. The final concentration of DMSO never overstepped 0.5%, which is non-toxic to the cells. Three technical replicates were performed for each concentration. The treated cells were incubated for 48 h at 37 °C under 5% CO2 and the viability of the cells was determined using MTT and CV assays according to the literature procedure. The IC50 values, defined as 50% inhibitory concentration, were calculated with a four-parameter logistic function and presented in a mean. All experiments were performed in triplicate.

MCF-7 cells [3] = experiment: Cell cycle analysis (DAPI, flow cytometry); assay type: cell-based, human; conditions: 48 h, IC50 dose
Description: The mode of action was further investigated by analysing the effects of Ph3SnL1 and cisplatin on the cell cycle phase distribution of MCF-7 cells. This was evaluated by cytofluorimetric analysis using DAPI staining. […] While cisplatin acts on DNA (among other effects), the lipophilic cationic nature of triphenyltin(IV) may guide it preferentially to mitochondria to intervene with cells’ energy metabolism.
The Falcon tubes were centrifuged for 3 min at 1000 rpm and the supernatant was discarded. Afterwards, the cells were washed with 1 mL of PBS, centrifuged for 3 min at 1000 rpm and the supernatant was discarded. The cells were resuspended in 300 μL of ice-cold PBS buffer and then fixed by adding them dropwise to 700 μL of ice-cold absolute ethanol. The cells were stored for 24 h at 4 °C, then centrifuged for 3 min at 1000 rpm, washed with PBS and stained with 1 mL of DAPI (4′,6-diamidino-2-phenylindole) working solution [39]. The prepared cells were incubated at room temperature for 10 min and analysed by flow cytometry.

[4] = tested on: MCF-7 (breast cancer) cells; experiment: MTT assay, MCF-7 cells; assay type: cell-based, human; conditions: for IC50: MTT assay, 48 h incubation, read-out: IC50 (mean ± SD), MCF-7, MTT
Description: as §1, §2

[5] = tested on: PC-3 (human prostate cancer) cells; experiment: MTT assay, PC-3 cells; assay type: cell-based; conditions: MTT assay, 48 h incubation; read-out: IC50 (mean ± SD), PC-3, MTT
Description: as §1, §2

[6] = tested on: HepG2 (hepatocellular cancer) cells; experiment: CV (crystal violet) assay, HepG2 cells; assay type: cell-based, human; conditions: CV assay, 48 h incubation; read-out: IC50 (mean ± SD), HepG2, CV
Description: as §1, §2

SMILES: O=C(CCc1nc(-c2ccccc2)c(-c2ccccc2)o1)[O][Sn]([c]1ccccc1)([c]1ccccc1)[c]1ccccc1 [Ph3SnL1, (3-(4,5-Diphenyloxazol-2-yl)propanoato)triphenyltin(IV)]
- production of ROS/RNS species (MCF-7 cells [1]): does not affect the production of ROS and RNS
- IC50 [2]: 2.66 ± 0.52 µM
- cell cycle phase distribution (MCF-7 cells [3]): does not lead to any significant changes in the cell cycle distribution
- IC50 [4]: 0.132 ± 0.021 µM
- fold higher activity compared to cisplatin against MCF-7 ([4]; Table 1 IC50 values, 48 h): up to 120 fold
- IC50 [5]: 0.181 ± 0.027 µM
- IC50 [6]: 0.366 ± 0.051 µM

SMILES: N.N.[Cl][Pt][Cl] [cisplatin, reference compound]
- production of ROS/RNS species (MCF-7 cells [1]): elevates the production of both reactive oxygen and nitrogen species
- IC50 [2]: 14.2 ± 1.95 µM
- cell population in G1/G0 phase (MCF-7 cells [3]): considerable decrease
- cell population in S and G2/M phases (MCF-7 cells [3]): increase
- population of cells in the sub-G1 phase (MCF-7 cells [3]): did not lead to any observable changes
- IC50 [4]: 15.2 ± 1.04 µM
- IC50 [5]: 14.3 ± 0.26 µM
- IC50 [6]: 3.65 ± 0.35 µM
